From a melting point compilation (Tetko et al.; mined from patent text by program, amines drawn as free bases though some values may be those of a salt)

melting point | Structure (SMILES)
223 to 225 °C | C/C(=C/c1ccc(C(=O)O)cc1)c1cc2c(cc1C)CCC(C)(C)CC2
68.6 °C | CC(C)(C)OC(=O)COc1ccccc1C=O
67.5 to 68.8 °C | COc1cc(C(C)C)c(OCC#N)cc1I
155 to 159 °C | CCC(=O)Oc1ccc(N=c2scc(-c3ccc(Cl)c(S(=O)(=O)N(C)C)c3)n2C)cc1
65 °C | Cc1c(N)cccc1C(=O)c1ccc(Cl)cc1
119 to 120 °C | CCN1C(=O)NC(=O)C1O (configuration not stated)
131 °C | CCOc1ccc2c(c1)n(C1CCCCC1)c(=O)n2S(=O)(=O)c1ccc(C(=O)OCc2ccccc2)cc1OC
251 to 252 °C | CCn1c(=O)c2[nH]c(C(C)=Cc3ccccc3)nc2n(CC)c1=O
247 to 248 °C | CCOC(=O)c1cc(=O)c2c(ccc3nc(C(=O)OC)cc(O)c32)o1
191 to 193 °C | CNC(=O)c1cccc(F)c1Nc1nc(Nc2ccc3c(c2)CCCC(=O)N3CCOC)ncc1Br
140 to 141 °C | Cc1cccc(Cn2cccc2C(=O)CC(=O)C(=O)O)c1
133 to 136 °C | CCOC(=O)Cc1cc(OC)c2c(c1)C1(O)C(=O)c3ccccc3C1(O)O2 (configuration not stated)
147 to 148 °C | CC(=O)c1c[nH]c(CO)n1
144 °C | CC(C)(C)OC(=O)NCCNC(=O)c1noc(N)c1-c1ccccc1
32 to 34 °C | COC(=O)[C@H](O)[C@@H](O)C(C)C
138 °C | COc1c2nc3ccccc3sc-2c(C)c(=O)c1OC
228 °C | CC(=O)OC1CSC(Sc2ccc(C#N)cc2C#N)C(OC(C)=O)C1OC(C)=O (configuration not stated)
92 to 93 °C | CCOC(Cc1ccc(OCCN2CCSc3ccccc32)cc1)C(=O)NCc1ccccc1 (configuration not stated)
142 to 144 °C | O=C(CN1C(=O)CNC1=O)OCc1ccccc1
85 to 86 °C | CS(=O)(=O)Oc1ccc(CCOc2ccc(-c3ncccc3C(=O)O)cc2C#N)cc1
115 to 116 °C | NC(=O)COc1cccc(CCNS(=O)(=O)c2ccc(Br)cc2)c1
91 to 94 °C | CCC(C)(O)C#Cc1ccc(C(CC2CCCC2)C(=O)O)cc1 (configuration not stated)
80 to 82 °C | COc1ccc(C(C#N)SC2CCCCC2)cc1OC (configuration not stated)
100 °C | CCOC(=O)NN=COC(N)CC (configuration not stated)
64 to 66 °C | COC(=O)CC(S)C(CC(C)C)C(=O)NC(Cc1ccccc1)C(N)=O (configuration not stated)
101 to 102 °C | Cc1cc(C#N)cnc1C(=O)Nc1ccc(F)c([C@]2(C)CO[C@@](C)(C(F)(F)F)C(N)=N2)c1

Continued, compound first:

Structure (SMILES) | melting point
Cc1ccc(-n2c(-c3ccc(S(C)(=O)=O)cc3)nc(O)c(C#N)c2=O)cc1C | > 285 °C
O=C(C1CC1)N1CCC2(CC1)OCCO2 | 72 to 74 °C
O=C(Nc1ccc(F)cc1)O[C@@H]1CN=C(c2ccccc2)O[C@H]1c1ccccc1 (racemic) | 158 °C
OCCCC(=C(c1ccccc1)c1ccccc1)c1ccccc1 | 128 to 130 °C
CC1(C)OC(=S)Nc2ccc(-c3cccc(Br)c3)cc21 | 191 to 193 °C
CC1COc2c(N3CCC(n4ccnn4)C3)c(F)cc3c(=O)c(C(=O)O)cn1c23 (single isomer, unassigned; (-)) | 225 to 229 °C
COc1ccc(Nc2nc(OCC3CCCCC3)c3[nH]cnc3n2)cc1 | 189 to 192 °C
Clc1ccc2[nH]cc(C3=CCN(CCOc4ccccc4)CC3)c2c1 | 172 °C
CC(c1ccc(Cl)c(Cl)c1)n1[nH]c(N)cc1=O (configuration not stated) | 127 to 129 °C
CC(=NO)c1cccc(C(F)(F)F)c1 | 63 to 65 °C
CC(C)n1nc(-c2c(OC3CCOCC3)nc(N)nc2-c2ccccc2)ccc1=O | 207 to 209 °C
N#Cc1ccc(NC(=O)c2cccc(OCc3cc(F)cc(F)c3)c2)cc1 | 185 to 187 °C
Cc1oc(-c2ccccc2)nc1COc1ccc(Cn2cc(CCC(=O)O)c(-c3ccc(C(F)(F)F)cc3)n2)cc1 | 149 to 150 °C
Brc1ccc2c(c1)C(c1ccccn1)=CCc1nncn1-2 | 219 °C
O=C1COc2ccc(C3=Nn4cnnc4SC3c3ccccc3Cl)cc2N1 (configuration not stated) | 234 to 235 °C
CCN(C(C)=O)c1cccc(-c2ccn3ncc(C#N)c3n2)c1 | 194 to 196 °C
CC(C)c1nn(-c2nc3ccccc3s2)c(-c2ccc(F)cc2)c1Br | 146 to 147 °C
CN1CCN(Cc2ccc(Cl)cc2Cl)C(C2(C)NCCN2)C1 (configuration not stated) | 61 to 63 °C
c1cnc2ccc(Cn3cnc4ccc(-c5cn[nH]c5)nc43)cc2c1 | 214 to 216 °C
CN1CCN(c2c(F)c(NCc3ccccc3)c3c(c2F)n2c(=O)n(OCc4ccccc4)c(=O)cc2n3C2CC2)CC1 | 214 °C
O=C(O)c1cn(Cc2csnn2)c2cc(F)c(F)cc2c1=O | 257 to 261 °C
O=CNNC(=O)N1Cc2ccccc2Oc2ccc(Cl)cc21 | 177 to 181 °C
COC(=O)[C@@H]1C[C@H](C(=O)OC(C)(C)C)N(C(=O)CNC(=O)Nc2cccc(C(=O)O)c2)[C@@H]1c1ccccc1 (racemic) | 243 °C

Structure (SMILES) | melting point
CC(C)(Oc1ccccc1)C(=O)N[C@H]1CC[C@H](c2ccc(O)cc2)CC1 | 114 to 117 °C
CC(O)c1cc2ccccc2cn1 (configuration not stated) | 104 to 106 °C
COc1ccc(-n2cncc2-c2ccccc2)cc1 | 106 °C
CCc1cc(-c2ccccc2)nn1-c1ccc([N+](=O)[O-])cc1 | 112 to 113 °C
CC(O)c1cn(C2CCc3c(F)cc(F)cc3C2)c(=S)[nH]1 (configuration not stated) | 210 to 211 °C
Cn1c(COc2ccc(C=C3SC(=O)NC3=O)cc2)nc2cccnc21 | 279 to 281 °C
Cc1cc(-c2cc(=O)c3ccccc3o2)cc(C)c1O | 255 to 256 °C
O=C1[C@H]2CCC[C@H]2N(C(=O)CBr)c2ccc(Cl)cc2N1Cc1ccccc1 (relative stereo) | 163 to 164 °C
O=C(O)[C@@H]1C[C@H](Cc2ccc(Cl)cc2)CN1 | 233 to 235 °C
CC1=NN=C(c2ccc([N+](=O)[O-])cc2)c2ccc(Cl)cc2C1 | 227 to 228 °C
CCc1nc(Cc2ccc([N+](=O)[O-])cc2)no1 | 69 to 70 °C
O=C(O)COc1ccc(OCCC(c2ccccc2)(c2ccccc2)c2ccccc2)cc1 | 66 to 68 °C
CSc1nn2c(O)cc(C)nc2c1S(=O)(=O)c1ccc(C(C)C)cc1 | 183 to 184 °C
Nc1ncnc2c1c(-c1ccc(OCc3ccccc3)cc1)cn2-c1cccc(OCCCl)c1 | 146 to 148 °C
Cc1cc2c(cc1C=O)OCO2 | 84 to 86 °C
CN1C(=O)C(C(=O)Nc2ccc(Oc3nc(C(F)(F)F)nn3C)cc2)C(=O)N(C)C1=O | 202 to 204 °C
C=Cc1ccc(CNc2ccccn2)c(Cl)c1 | 119 to 121 °C
COc1ccc2c(c1)NC(=O)C(CCCN1CCN(c3ccc(F)cc3)CC1)O2 (configuration not stated) | 153 to 154 °C
Cc1c(NC(=O)c2ccc(-c3ccc(F)cc3)cc2)ccc2cc(CN3CCC(CCCC(=O)N(C)C)CC3)cnc12 | 202 to 204 °C
C[C@]1(CN2CCC(NCCc3ccc(C(F)(F)F)cc3)CC2)Cn2cc([N+](=O)[O-])nc2O1 | 80.7 to 84.2 °C
C=CCS(=O)(=O)c1ncc(Cl)cn1 | 84 °C
Cc1c(SCCCSc2nc3ccccc3[nH]2)ccnc1CSc1ccncc1 | 128 to 129 °C
O=C1NC(N2CCN(c3ccncc3)CC2)c2ccccc21 (configuration not stated) | 210 to 214 °C
